Data set [1] relates to Staphylococcus aureus MSSA (Newman). The data set is described as follows: broth microdilution MIC assay, Staphylococcus aureus MSSA (Newman). Format: cell-based. The settings on record: for MIC: Staphylococcus aureus; for Antibacterial activity Staphylococcus aureus (MSSA): MIC100 class score, broth microdilution. In general terms: In broth dilution the organism is exposed to a series of concentrations in liquid medium.

The subject of data set [2] is Staphylococcus aureus MRSA (COL). As to the kind of experiment: broth microdilution MIC assay, Staphylococcus aureus MRSA (COL). The settings on record: for MIC: Staphylococcus aureus, MRSA. In kind it is cell-based.
The test system of data set [3] is penicillin-, erythromycin- and tetracycline-resistant Streptococcus pneumoniae (ATCC 700677), ARSP. The data set is described as follows: microbe, parasite or virus in culture. In kind it is cell-based.
Data set [4] relates to Staphylococcus epidermidis (PCI 1200, ATCC12228). The data set is described as follows: broth microdilution MIC assay, Staphylococcus epidermidis. Particulars: ATCC12228, read-out: Antibacterial activity SE (Staphylococcus epidermidis). Format: cell-based.
Data set [5] relates to Bacillus subtilis (Marburg strain, ATCC6051). The data set is described as follows: microbe, parasite or virus in culture. Format: cell-based. The settings on record: ATCC6051, read-out: Antibacterial activity BS (Bacillus substilis).
Data set [6] relates to Human hepatocytes (HepaRG cells). The data set is described as follows: human cytotoxicity assay in vitro (CellTiter-Glo), hepatocytes. In kind it is cell-based. The settings on record: cytotoxicity class.
The test system of data set [7] is Mycobacterium smegmatis (mc(2)155, ATCC700084). As to the kind of experiment: broth microdilution MIC assay, Mycobacterium smegmatis. Particulars: MIC activity class.
In data set [8] the test system is Streptococcus pneumoniae (Chester, ATCC49619). The data set is described as follows: broth microdilution MIC assay, Streptococcus pneumoniae. In kind it is cell-based. Particulars: MIC100 class score, 24 h.
Data set [9] relates to Escherichia coli TolC mutant strain ΔtoIC (K12 b3035 TolC; JW5503). Format: cell-based. The settings on record: MIC activity class.
The test system of data set [10] is vancomycin-resistant Staphylococcus aureus. The data set is described as follows: broth microdilution MIC assay,  MRSA (COL). Format: cell-based. The settings on record: read-out: MIC for the resistant strain.
[11] abbreviates: 24 h, read-out: Antibacterial activity Staphylococcus aureus (MSSA).
[12] abbreviates: read-out: Antibacterial activity MSSA (Staphylococcus aureus MSSA).
Where [13] appears, read: read-out: Antibacterial activity MRSA (Staphylococcus aureus MRSA).
Where [14] appears, read: MIC100 class score, broth microdilution, 24 h, read-out: Antibacterial activity Staphylococcus aureus (MRSA).
The mark [15] stands for this setting: ATCC700677, MIC activity class, read-out: Antibacterial activity ARSP (multi-drug resistant-SP).
Setting [16] is: ATCC700677, read-out: Antibacterial activity ARSP (multi-drug resistant-SP).
Setting [17] is: MIC100 class score, broth microdilution, 24 h.

≈ marks a conversion by molar mass, not a printed value. Read-outs that look alike come from different tables or passages of the source. A value given as a limit tells only on which side of the number the result lay.

On to `Cc1nc(-c2ccc(-c3ccc(Cl)cc3Cl)o2)[nH]c1-c1ccccc1` [Compound 1], for which the MIC in [1] (setting [11]) was 1 to 3 µg/mL (≈ 2.71 to 8.12 µM); in [1] (setting [12]), 1 to 3 µg/mL (≈ 2.71 to 8.12 µM); in [2] (setting [13]), 1 to 3 µg/mL (≈ 2.71 to 8.12 µM); in data set [2] (setting [14]) it was 1 to 3 µg/mL (≈ 2.71 to 8.12 µM); in data set [3] (setting [15]) it was below 1 µg/mL; in data set [4], 3 to 10 µg/mL (≈ 8.12 to 27.1 µM). In addition, the MIC in data set [5] lay in the range of 3 to 10 µg/mL (≈ 8.12 to 27.1 µM). Besides, the “cytotoxicity cell line H (hepatocytes)” value in data set [6] is recorded as 2. Besides, the “Antibacterial activity MS (Mycobacterium smegmatis)” value (from here on “Antibacterial activity MS”) in [7] is on record as 2 (MIC100 of 11-201 μg/ml).

With `Cc1[nH]c(-c2ccc(-c3ccc(Cl)cc3)s2)nc1-c1ccccc1` [Compound 6], the “Antibacterial activity Streptococcus pneumoniae” value in [8] is on record as 3 (MIC100 of 2-5 μg/ml). Further, the MIC in [3] (setting [15]) is 2 to 5 µg/mL (≈ 5.7 to 14.3 µM); in [5], 11 to 201 µg/mL (≈ 31.4 to 573 µM). In addition, in data set [7], the “Antibacterial activity MS” value is reported as 2 (MIC100 of 11-201 μg/ml).

As for `Cc1[nH]c(-c2ccc(-c3ccccc3F)s2)nc1-c1ccccc1` [Compound 15], in [8], the “Antibacterial activity Streptococcus pneumoniae” value is on record as 3 (MIC100 of 2-5 μg/ml). Moreover, in data set [3] (setting [16]), the MIC lay within 2 to 5 µg/mL (≈ 5.98 to 15 µM). Moreover, the “Antibacterial activity MS” value in [7] is listed as 2 (MIC100 of 11-201 μg/ml).

With `Cc1nc(-c2ccc(-c3ccccc3OC(F)(F)F)o2)[nH]c1-c1ccccc1Cl` [Compound 19], the MIC lay in the range of 20 to 50 µg/mL (≈ 47.8 to 119 µM) in data set [1] (setting [12]), 20 to 50 µg/mL (≈ 47.8 to 119 µM) in data set [2] (setting [13]) and 2 to 5 µg/mL (≈ 4.78 to 11.9 µM) in data set [3] (setting [16]). Moreover, the “cytotoxicity cell line H (hepatocytes)” value in data set [6] was 3. Further, in data set [7], the “Antibacterial activity MS” value is listed as 2 (MIC100 of 11-201 μg/ml).

`Cc1nc(-c2ccc(-c3cccc(OC(F)(F)F)c3)o2)[nH]c1-c1ccccc1` [Compound 34]: the MIC is 1 to 3 µg/mL (≈ 2.6 to 7.81 µM) in [1] (setting [11]); 1 to 3 µg/mL (≈ 2.6 to 7.81 µM) in [1] (setting [12]); 1 to 3 µg/mL (≈ 2.6 to 7.81 µM) in data set [2] (setting [13]); 1 to 3 µg/mL (≈ 2.6 to 7.81 µM) in [2] (setting [14]); below 1 µg/mL in [3] (setting [15]); 20 to 50 µg/mL (≈ 52 to 130 µM) in data set [4]. The MIC in [5] lay within 3 to 10 µg/mL (≈ 7.81 to 26 µM). Besides, the “cytotoxicity cell line H (hepatocytes)” value in data set [6] is 2. For the same compound, in data set [7], the “Antibacterial activity MS” value is 2 (MIC100 of 11-201 μg/ml).

For `Cc1nc(-c2ccc(-c3cccc(OC(F)(F)F)c3)o2)[nH]c1-c1ccc(F)cc1` [Compound 37], the “Antibacterial activity Staphylococcus aureus (MSSA)” value in data set [1] (24 h) is 3 (MIC100 of 3-10 μg/ml). For the same compound, the MIC in [1] (setting [12]) lay within 3 to 10 µg/mL (≈ 7.46 to 24.9 µM); in data set [2] (setting [13]) it was 3 to 10 µg/mL (≈ 7.46 to 24.9 µM); in data set [3] (setting [15]), 2 to 5 µg/mL (≈ 4.97 to 12.4 µM); in [4] it was 20 to 50 µg/mL (≈ 49.7 to 124 µM); in [5], 3 to 10 µg/mL (≈ 7.46 to 24.9 µM). Besides, the “cytotoxicity cell line H (hepatocytes)” value in data set [6] was found to be 3. In addition, the “Antibacterial activity MS” value in data set [7] was 2 (MIC100 of 11-201 μg/ml).

With `Cc1[nH]c(-c2ccc(-c3ccc(C(F)(F)F)cc3)o2)nc1-c1ccc(Cl)cc1` [Compound 47], the MIC in [1] (setting [12]) is 1 to 3 µg/mL (≈ 2.48 to 7.45 µM); in data set [2] (setting [13]), 3 to 10 µg/mL (≈ 7.45 to 24.8 µM); in data set [3] (setting [15]) it was below 1 µg/mL; in data set [4], 3 to 10 µg/mL (≈ 7.45 to 24.8 µM); in data set [5], 3 to 10 µg/mL (≈ 7.45 to 24.8 µM). Also, in data set [2] (setting [17]), the “Antibacterial activity Staphylococcus aureus (MRSA)” value is 3 (MIC100 of 3-10 μg/ml). Also, in data set [7], the “Antibacterial activity MS” value was 3 (MIC100 of 3-10 μg/ml).

For `Cc1[nH]c(-c2ccc(-c3cccc(F)c3C)o2)nc1-c1ccccc1` [Compound 60], the MIC is 3 to 10 µg/mL (≈ 9.03 to 30.1 µM) in data set [1] (setting [11]); 3 to 10 µg/mL (≈ 9.03 to 30.1 µM) in data set [1] (setting [12]); 20 to 50 µg/mL (≈ 60.2 to 150 µM) in data set [2] (24 h, read-out: Antibacterial activity Staphylococcus aureus (MRSA)); 20 to 50 µg/mL (≈ 60.2 to 150 µM) in data set [2] (setting [13]); 2 to 5 µg/mL (≈ 6.02 to 15 µM) in [3] (setting [15]); 20 to 50 µg/mL (≈ 60.2 to 150 µM) in [4]. The MIC in [5] was in the range of 3 to 10 µg/mL (≈ 9.03 to 30.1 µM). In [6], the “cytotoxicity cell line H (hepatocytes)” value was 3. For the same compound, in data set [7], the “Antibacterial activity MS” value is listed as 2 (MIC100 of 11-201 μg/ml).

With `Cc1ccccc1-c1c[nH]c(-c2ccc(-c3ccccc3OC(F)(F)F)o2)n1` [Compound 66], the “Antibacterial activity Staphylococcus aureus (MSSA)” value in data set [1] (24 h) is reported as 3 (MIC100 of 3-10 μg/ml). The MIC in data set [1] (setting [12]) lay in the range of 3 to 10 µg/mL (≈ 7.81 to 26 µM); in data set [2] (setting [13]), 11 to 201 µg/mL (≈ 28.6 to 523 µM); in data set [3] (setting [15]), 2 to 5 µg/mL (≈ 5.2 to 13 µM); in [4], 20 to 50 µg/mL (≈ 52 to 130 µM); in [5] it was 3 to 10 µg/mL (≈ 7.81 to 26 µM). In [2] (setting [17]), the “Antibacterial activity Staphylococcus aureus (MRSA)” value was 2 (MIC100 of 11-201 μg/ml). For the same compound, in data set [6], the “cytotoxicity cell line H (hepatocytes)” value is 3. In addition, in [7], the “Antibacterial activity MS” value is 2 (MIC100 of 11-201 μg/ml).

As for `FC(F)(F)Oc1ccccc1-c1ccc(-c2nc(-c3ccc(Cl)cc3Cl)c[nH]2)o1` [Compound 68], in data set [8], the “Antibacterial activity Streptococcus pneumoniae” value is 2 (MIC100 of 6-10 μg/ml). Besides, in [1] (24 h), the “Antibacterial activity Staphylococcus aureus (MSSA)” value was 2 (MIC100 of 11-201 μg/ml). Further, the MIC in data set [1] (setting [12]) was 11 to 201 µg/mL (≈ 25 to 458 µM); in [2] (setting [13]), 11 to 201 µg/mL (≈ 25 to 458 µM); in [3] (setting [15]), 2 to 5 µg/mL (≈ 4.55 to 11.4 µM); in data set [4], 3 to 10 µg/mL (≈ 6.83 to 22.8 µM); in data set [5], 3 to 10 µg/mL (≈ 6.83 to 22.8 µM). Besides, in data set [6], the “cytotoxicity cell line H (hepatocytes)” value turned out to be 2.

Regarding `Cc1ccccc1-c1cnc(-c2ccc(-c3ccccc3C(F)(F)F)o2)[nH]1` [Compound 69], the “Antibacterial activity Staphylococcus aureus (MSSA)” value in data set [1] (24 h) was 3 (MIC100 of 3-10 μg/ml). Further, the MIC lay in the range of 11 to 201 µg/mL (≈ 29.9 to 546 µM) in data set [1] (setting [12]), 2 to 5 µg/mL (≈ 5.43 to 13.6 µM) in data set [3] (setting [15]) and 20 to 50 µg/mL (≈ 54.3 to 136 µM) in data set [5]. The “Antibacterial activity Staphylococcus aureus (MRSA)” value in data set [2] (setting [17]) is given as 2 (MIC100 of 11-201 μg/ml). Besides, the “cytotoxicity cell line H (hepatocytes)” value in [6] amounted to 2. Besides, in data set [7], the “Antibacterial activity MS” value is given as 2 (MIC100 of 11-201 μg/ml).

Regarding `CN(C)Cc1[nH]c(-c2ccc(-c3ccccc3C(F)(F)F)o2)nc1-c1ccccc1` [Compound 70], the MIC in data set [1] (setting [11]) lay within 20 to 50 µg/mL (≈ 48.6 to 122 µM); in [1] (setting [12]), 20 to 50 µg/mL (≈ 48.6 to 122 µM); in [2] (setting [13]), 20 to 50 µg/mL (≈ 48.6 to 122 µM); in [2] (setting [14]), 20 to 50 µg/mL (≈ 48.6 to 122 µM); in data set [4] it was 11 to 201 µg/mL (≈ 26.7 to 489 µM); in data set [5], 20 to 50 µg/mL (≈ 48.6 to 122 µM). Moreover, the “Antibacterial activity EC Δ (Escherichia coli ΔtoIC)” value in [9] is given as 3 (MIC100 of 3-10 μg/ml). For the same compound, the “cytotoxicity cell line H (hepatocytes)” value in [6] is recorded as 3.

Regarding `CN[C@H](CC(C)C)C(=O)N[C@H]1C(=O)N[C@@H](CC(N)=O)C(=O)N[C@H]2C(=O)N[C@H]3C(=O)N[C@H](C(=O)N[C@H](C(=O)O)c4cc(O)cc(O)c4-c4cc3ccc4O)[C@H](O)c3ccc(c(Cl)c3)Oc3cc2cc(c3O[C@@H]2O[C@H](CO)[C@@H](O)[C@H](O)[C@H]2O[C@H]2C[C@](C)(N)[C@H](O)[C@H](C)O2)Oc2ccc(cc2Cl)[C@H]1O` [vancomycin, Vancomycin], the MIC in data set [10] is 20 µg/mL (≈ 13.8 µM).

(Values after patent US10322110B2, “Imidazole-based antimicrobial agents” (priority 2014, dated 2019).)
